The results in this text go back to patent US20120135055A1, “Dry Powder Inhaler Formulations” (BREATH LIMITED, priority 2009, published 2012).

The nature of data set [1]: Dry Sympatec PSD analysis (particle size distribution). Particulars: pre-storage. Type of data set: physicochemical.
The nature of data set [2]: Effect of humidity on prolonged storage (20% RH, 48 hours; DVS, DSC, TGA, PSD, SEM). The format is physicochemical. Particulars: 20% RH for 48 hours; for DSC trace, thermal behaviour of stored sample: post-humidity treatment. The procedure:
In order to evaluate the effect of humidity on prolonged storage processed BDP hydrate was subjected to 20% relative humidity (RH) for 48 hours. The sample recovered after storage was analysed by DSC, TGA, PSD and SEM. In order to evaluate the effect of humidity on prolonged storage, processed BDP heptane was subjected to 20% relative humidity (RH) for 48 hours. The sample recovered after storage was analysed by DSC, TGA, PSD and SEM.

On to `CCC(=O)OCC(=O)[C@@]1(OC(=O)CC)[C@@H](C)C[C@H]2[C@@H]3CCC4=CC(=O)C=C[C@]4(C)[C@@]3(Cl)[C@@H](O)C[C@@]21C.O` [BDP heptane, beclomethasone diproprionate], for which, in data set [1], the “Particle size distribution relative to the inhalation range” value was “extremely promising and within the inhalation range”. Besides, the “DSC trace, thermal behaviour of stored sample” value in data set [2] is on record as “no variation in the thermal behaviour”. Also, in data set [2] (post-storage sample), the “Particle Size, cumulative distribution Q3 X10” value is recorded as 0.68 μ; the “Particle Size, cumulative distribution Q3 X50” value is on record as 2.44 μ; the “Particle Size, cumulative distribution Q3 X90” value came out at 5.29 μ.

Turning to `CCC(=O)OCC(=O)[C@@]1(OC(=O)CC)[C@@H](C)C[C@H]2[C@@H]3CCC4=CC(=O)C=C[C@]4(C)[C@@]3(Cl)[C@@H](O)C[C@@]21C.O` [BDP hydrate, beclomethasone diproprionate], the “Particle size distribution relative to the inhalation range” value in data set [1] is listed as “well within the inhalation range”. For the same compound, in data set [2], the “DVS mass plot, change of mass during storage” value is recorded as “considerable weight loss due to partial dehydration”; the “Stability on prolonged storage compared with anhydrous BDP” value was “higher stability on prolonged storage than anhydrous BDP”; the “DSC trace, thermal behaviour of stored sample” value is “no variation in the thermal behaviour”. For the same compound, in data set [2] (post-storage sample), the “Particle Size, cumulative distribution Q3 X50” value is recorded as 1.37 μ and the “Particle Size, cumulative distribution Q3 X90” value worked out at 2.95 μ.
